Laboratory results taken from the supplement of paper PMC10307832.

Columns and labels:
Assay in all cases: relative viability (nuclei count vs DMSO), 5 days (fraction); higher = more cells survive
AZD1208 + Pemetrexed = compound: N[C@@H]1CCCN(c2c(/C=C3\SC(=O)NC3=O)cccc2-c2ccccc2)C1 [AZD1208] + Nc1nc2[nH]cc(CCc3ccc(C(=O)N[C@@H](CCC(=O)O)C(=O)O)cc3)c2c(=O)[nH]1 [Pemetrexed] (partner 0.2 µM)
In short: (§1)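 The day after seeding in 1536-well plates, lung cancer cell lines were treated by pin tool with a single drug, or with a fixed anchor-drug dose together with five library-drug doses (not always all listed) in √10 steps. After 5 days, a combined fix-and-stain solution (final 0.05% Triton X-100, 1% formaldehyde, 1 ug/ml Hoechst) was added. Nuclei counted on 4× images gave relative viability as treated counts over vehicle counts, reported as the median of duplicate plates.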

XMD14-99 + OSI-027 = compound: CN1CCN(CC1)C2=CC(=C(C=C2)NC3=NC(=C(S3)C(=O)C4=C(C=CC=C4Cl)Cl)N)OC [XMD14-99] + COc1cccc2cc(-c3nc([C@H]4CC[C@H](C(=O)O)CC4)n4ncnc(N)c34)[nH]c12 [OSI-027] (partner 0.5 µM)
In short: as §1

AZD1208 = compound: N[C@@H]1CCCN(c2c(/C=C3\SC(=O)NC3=O)cccc2-c2ccccc2)C1 [AZD1208]
In short: (§2)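 Acceptance criteria were a control CV below 25% and at least one doubling per plate. Lung cancer cell lines in 1536-well plates got five library-drug doses (not always all listed) √10 apart by pinning and were left 5 days with no medium change. Viability divides treated-well nuclei by vehicle-well nuclei and is the median across plates. Nuclei were counted by MetaXpress from 4× Hoechst images.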

XMD14-99 = compound: CN1CCN(CC1)C2=CC(=C(C=C2)NC3=NC(=C(S3)C(=O)C4=C(C=CC=C4Cl)Cl)N)OC [XMD14-99]
In short: as §2

| Cell Line | relative viability (AZD1208 + Pemetrexed; first compound 0.08 µM) | relative viability (AZD1208 + Pemetrexed; first compound 0.253 µM) | relative viability (AZD1208 + Pemetrexed; first compound 0.8 µM) | relative viability (AZD1208 + Pemetrexed; first compound 2.53 µM) | relative viability (AZD1208 + Pemetrexed; first compound 8 µM) | relative viability (XMD14-99 + OSI-027; first compound 0.08 µM) | relative viability (XMD14-99 + OSI-027; first compound 0.8 µM) | relative viability (XMD14-99 + OSI-027; first compound 2.53 µM) | relative viability (XMD14-99 + OSI-027; first compound 8 µM) | relative viability (AZD1208; 0.08 µM) | relative viability (AZD1208; 0.253 µM) | relative viability (AZD1208; 0.8 µM) | relative viability (AZD1208; 2.53 µM) | relative viability (AZD1208; 8 µM) | relative viability (XMD14-99; 0.08 µM) | relative viability (XMD14-99; 0.8 µM) | relative viability (XMD14-99; 2.53 µM) | relative viability (XMD14-99; 8 µM) |
| --- | --- | --- | --- | --- | --- | --- | --- | --- | --- | --- | --- | --- | --- | --- | --- | --- | --- | --- |
| SK-MES-1 | 0.993 | 0.999 | 0.956 | 0.842 | 0.864 | 0.589 | 0.506 | 0.54 | 0.291 | 0.979 | 1.01 | 0.964 | 0.943 | 0.866 | 1.02 | 0.994 | 0.976 | 0.664 |
| SW 900 | 0.475 | 0.443 | 0.454 | 0.472 | 0.469 | 0.532 | 0.727 | 0.548 | 0.366 | 0.837 | 0.989 | 0.822 | 1 | 0.799 | 0.918 | 0.976 | 0.753 | 0.66 |
| SW 1573 | 0.782 | 0.748 | 0.717 | 0.646 | 0.749 | 0.629 | 0.758 | 0.599 | 0.493 | 0.822 | 0.899 | 0.799 | 0.807 | 0.696 | 0.964 | 0.939 | 1 | 0.834 |
